The values below come from patent US20100035868A1, “METHODS OF TREATMENT OF UTERINE PATHOLOGICAL CONDITIONS” (MEDICAL RESEARCH COUNCIL, priority 2001, published 2010).

The target in one data set is T1, COX-2 (Homo sapiens, UniProt P35354).
T1 sequence (P35354 18-604): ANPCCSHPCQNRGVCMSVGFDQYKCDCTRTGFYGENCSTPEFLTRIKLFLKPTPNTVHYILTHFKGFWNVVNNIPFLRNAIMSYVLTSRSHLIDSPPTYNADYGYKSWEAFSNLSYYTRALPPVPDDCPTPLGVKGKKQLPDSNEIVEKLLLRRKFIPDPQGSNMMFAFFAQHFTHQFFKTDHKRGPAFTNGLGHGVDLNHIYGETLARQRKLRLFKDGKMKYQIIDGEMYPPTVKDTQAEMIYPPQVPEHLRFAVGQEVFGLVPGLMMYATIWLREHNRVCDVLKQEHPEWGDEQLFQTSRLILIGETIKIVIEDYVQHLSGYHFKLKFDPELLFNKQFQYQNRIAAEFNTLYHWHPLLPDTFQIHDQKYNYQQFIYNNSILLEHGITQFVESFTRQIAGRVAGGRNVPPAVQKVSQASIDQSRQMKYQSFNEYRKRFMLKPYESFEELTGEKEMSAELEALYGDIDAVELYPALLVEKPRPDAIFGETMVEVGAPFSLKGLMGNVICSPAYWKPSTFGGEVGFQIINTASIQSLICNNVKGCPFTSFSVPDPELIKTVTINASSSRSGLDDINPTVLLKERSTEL
To be noted: cited from earlier work.

For data set [1], the system named is EP2/EP4 receptors. The data set is described as follows: cAMP generation in cultured endometrial adenocarcinoma tissue after PGE2 stimulation. To be noted: endometrial adenocarcinoma tissue (n=6), 300 nM PGE2 for 5 min, IBMX 1 mM; treated/untreated. It is filed as cell-based, human. The protocol: (§1) In vitro culture and cAMP measurement. Endometrial tumour tissue (n=6; two well, two moderately and two poorly differentiated adenocarcinomas) and normal secretory phase endometrium (n=6) were minced finely with scissors and incubated in 2 ml RPMI (Sigma) medium containing 10% fetal calf serum, 0.3 mg/ml L-glutamine, 100 IU penicillin, 100 μg streptomycin and 3 μg/ml indomethacin, for 1.5 hrs at 37C in humidified 5% CO2. Thereafter samples were incubated in the same medium containing IBMX (Sigma) to a final concentration of 1 mM for 30 min at 37C and then stimulated for 5 min with 300 nM PGE2. Control treatments received no PGE2. Tissue was harvested by centrifugation at 2000 g. The supernatant was discarded and the tissue homogenised in 0.1 M HCl. cAMP concentration was quantified by ELISA using a cAMP kit (Biomol; Affiniti, Exeter, UK) and normalised to protein concentration of the homogenate. Protein concentrations were determined using protein assay kits (Bio-Rad, Hemel Hempstead, UK). The data are presented as fold induction of cAMP following treatment with PGE2. Fold induction was calculated by dividing cAMP values for the PGE2-treated samples by the value for the untreated sample.

Data set [2] deals with EP2/EP4 receptors. Kind of data set: cAMP generation in cultured normal secretory phase endometrium after PGE2 stimulation. It is filed as cell-based, human. To be noted: normal secretory phase endometrium (n=6), 300 nM PGE2 for 5 min, IBMX 1 mM; treated/untreated. The method, then: as §1

Read-outs that look alike come from different tables or passages of the source.

Regarding `CS(=O)(=O)Nc1cc2c(cc1Sc1ccc(F)cc1F)C(=O)CC2` [L 475 L337], the “more specific for COX-2 inhibition than for COX-1 inhibition” value at COX-2 (COX-2 versus COX-1) is listed as 500 fold.
For `CS(=O)(=O)Nc1ccc([N+](=O)[O-])cc1Oc1ccccc1` [Nimesulide, N-(4-nitro-2-phenoxyphenyl)methane sulfonamide], the “more specific for COX-2 inhibition than for COX-1 inhibition” value at COX-2 is listed as 100 fold.
`CCCCC[C@H](O)/C=C/[C@H]1[C@H](O)CC(=O)[C@@H]1C/C=C\CCCC(=O)O` [PGE2, prostaglandin E2]: the “fold induction of cAMP generation in response to PGE2” value amounted to 3.42±0.46 in the data set on EP2/EP4 receptors [1] and 1.15±0.05 with EP2/EP4 receptors [2].
